Experimental data published in patent US20080262040A1, “Chemical Compounds” (SMITHKLINE BEECHAM CORPORATION, priority 2005, published 2008).

Each compound was assayed against T1, Recombinant human IKKβ (residues 1-737) (IKK2) (Homo sapiens, UniProt O14920) (assay: IKK2 TR-FRET assay). Conditions: IKK2 5 nM, GST-IκBα 25 nM, ATP 1 μM, 30 minutes at room temperature, read-out: pIC50 against IKK2 (converted).
T1 construct: Recombinant human IKKβ (residues 1-737) was expressed in baculovirus; GST (C); made in house
T1 sequence (O14920 1-737): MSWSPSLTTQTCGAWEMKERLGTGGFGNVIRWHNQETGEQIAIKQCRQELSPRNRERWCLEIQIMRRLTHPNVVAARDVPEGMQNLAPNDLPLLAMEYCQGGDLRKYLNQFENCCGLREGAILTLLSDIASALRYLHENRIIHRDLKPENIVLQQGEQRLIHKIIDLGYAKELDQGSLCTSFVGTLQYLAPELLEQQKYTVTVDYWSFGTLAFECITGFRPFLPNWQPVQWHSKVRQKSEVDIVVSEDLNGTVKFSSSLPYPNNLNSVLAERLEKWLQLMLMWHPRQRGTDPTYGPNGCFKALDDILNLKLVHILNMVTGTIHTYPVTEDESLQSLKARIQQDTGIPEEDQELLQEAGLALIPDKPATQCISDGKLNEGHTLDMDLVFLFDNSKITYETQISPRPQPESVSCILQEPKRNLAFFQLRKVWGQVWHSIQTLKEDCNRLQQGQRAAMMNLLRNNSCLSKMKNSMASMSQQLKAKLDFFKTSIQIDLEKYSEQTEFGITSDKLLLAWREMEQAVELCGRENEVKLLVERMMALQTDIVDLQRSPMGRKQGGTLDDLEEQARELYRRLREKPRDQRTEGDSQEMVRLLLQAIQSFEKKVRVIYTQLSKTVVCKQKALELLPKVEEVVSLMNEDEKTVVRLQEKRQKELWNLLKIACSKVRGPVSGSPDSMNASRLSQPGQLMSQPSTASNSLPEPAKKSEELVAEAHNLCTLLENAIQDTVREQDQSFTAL
Format: biochemical
Method: Recombinant human IKKβ (residues 1-737) was expressed in baculovirus as a C-terminal GST-tagged fusion protein, and its activity was assessed using a time-resolved fluorescence resonance energy transfer (TR-FRET) assay. Briefly, IKK2 (5 nM final) diluted in assay buffer (50 mM HEPES, 10 mM MgCl2, 1 mM CHAPS pH 7.4 with 1 mM DTT and 0.01% w/v BSA) was added to wells containing various concentrations of compound or DMSO vehicle (3% final). The reaction was initiated by the addition of GST-IκBα substrate (25 nM final)/ATP (1 μM final), in a total volume of 30 μl. The reaction was incubated for 30 minutes at room temperature, then terminated by the addition of 15 μl of 50 mM EDTA. Detection reagent (15 μl) in buffer (100 mM HEPES pH 7.4, 150 mM NaCl and 0.1% w/v BSA) containing antiphosphoserine-IκBα-32/36 monoclonal antibody 12C2 (Cell Signalling Technology, Beverly Mass., USA) labelled with W-1024 europium chelate (Wallac O Y, Turku, Finland), and an APC-labelled anti-GST antibody (Prozyme, San Leandro, Calif., USA) was added and the reaction was further incubated for 60 minutes at room temperature. The degree of phosphorylation of GST-IκBα was measured using a Packard Discovery plate reader (Perkin-Elmer Life Sciences, Pangbourne, UK) as a ratio of specific 665 nm energy transfer signal to reference europium 620 nm signal.

| SMILES | IC50 |
| --- | --- |
| CC(C)(C)OC(=O)N1CCC(n2ncc3c(C(N)=O)cc(-c4ccccc4)cc32)CC1 [Example 1, 1,1-dimethylethyl-4-[4-(aminocarbonyl)-6-phenyl-1H-indazol-1-yl]-1-piperidinecarboxylate] | ≤ 10 µM |
| NC(=O)c1cc(-c2ccccc2)cc2c1cnn2C1CCNCC1 [Example 2, 6-phenyl-1-(4-piperidinyl)-1H-indazole-4-carboxamide] | ≤ 10 µM |
| NC(=O)c1cc(-c2ccccc2)cc2[nH]ncc12 [Example 3, 6-phenyl-1H-indazole-4-carboxamide] | ≤ 10 µM |
| NC(=O)c1cc(-c2ccccc2)cc2c1cnn2C1CCN(S(=O)(=O)c2ccc(F)cc2)CC1 [Example 4, 1-{1-[(4-fluorophenyl)sulfonyl]-4-piperidinyl}-6-phenyl-1H-indazole-4-carboxamide] | ≤ 10 µM |
| Cn1cnc(S(=O)(=O)N2CCC(n3ncc4c(C(N)=O)cc(-c5ccccc5)cc43)CC2)c1 [Example 5, 1-{1-[(1-methyl-1H-imidazol-4-yl)sulfonyl]-4-piperidinyl}-6-phenyl-1H-indazole-4-carboxamide] | ≤ 10 µM |
| CCC(=O)N1CCC(n2ncc3c(C(N)=O)cc(-c4ccccc4)cc32)CC1 [Example 6, 6-phenyl-1-(1-propanoyl-4-piperidinyl)-1H-indazole-4-carboxamide] | ≤ 10 µM |
| CCS(=O)(=O)N1CCC(n2ncc3c(C(N)=O)cc(-c4ccccc4)cc32)CC1 [Example 7, 1-[1-(ethylsulfonyl)-4-piperidinyl]-6-phenyl-1H-indazole-4-carboxamide] | ≤ 10 µM |
| NC(=O)c1cc(-c2ccccc2)cc2c1cnn2C1CCN(C(=O)c2ccccc2)CC1 [Example 8, 6-phenyl-1-[1-(phenylcarbonyl)-4-piperidinyl]-1H-indazole-4-carboxamide] | ≤ 10 µM |
| NC(=O)c1cc(-c2ccccc2)cc2c1cnn2C1CCN(S(=O)(=O)c2ccccc2)CC1 [Example 9, 6-phenyl-1-[1-(phenylsulfonyl)-4-piperidinyl]-1H-indazole-4-carboxamide] | ≤ 10 µM |
| CC(C)(C)OC(=O)N1CCCC(n2ncc3c(C(N)=O)cc(-c4ccccc4)cc32)C1 (stereo not shown) [Example 12, 1,1-dimethylethyl-3-[4-(aminocarbonyl)-6-phenyl-1H-indazol-1-yl]-1-piperidinecarboxylate] | ≤ 10 µM |
| CCS(=O)(=O)N1CCCC(n2ncc3c(C(N)=O)cc(-c4ccccc4)cc32)C1 (stereo not shown) [Example 14, 1-[1-(ethylsulfonyl)-3-piperidinyl]-6-phenyl-1H-indazole-4-carboxamide] | ≤ 10 µM |
| Cn1cnc(S(=O)(=O)N2CCCC(n3ncc4c(C(N)=O)cc(-c5ccccc5)cc43)C2)c1 (stereo not shown) [Example 15, 1-{1-[(1-methyl-1H-imidazol-4-yl)sulfonyl]-3-piperidinyl}-6-phenyl-1H-indazole-4-carboxamide] | > 15.8 µM |
| CCC(=O)N1CCCC(n2ncc3c(C(N)=O)cc(-c4ccccc4)cc32)C1 (stereo not shown) [Example 16, 6-phenyl-1-(1-propanoyl-3-piperidinyl)-1H-indazole-4-carboxamide] | > 15.8 µM |
| NC(=O)c1cc(-c2ccccc2)cc2c1cnn2C1CCCN(C(=O)c2ccccc2)C1 (stereo not shown) [Example 17, 6-phenyl-1-[1-(phenylcarbonyl)-3-piperidinyl]-1H-indazole-4-carboxamide] | > 15.8 µM |
| NC(=O)c1cc(-c2ccccc2)cc2c1cnn2C1CCCN(S(=O)(=O)c2ccccc2)C1 (stereo not shown) [Example 18, 6-phenyl-1-[1-(phenylsulfonyl)-3-piperidinyl]-1H-indazole-4-carboxamide] | > 15.8 µM |
| NC(=O)c1cc(-c2ccccc2)cc2c1cnn2C1CCCN(S(=O)(=O)c2ccc(F)cc2)C1 (stereo not shown) [Example 19, 1-{1-[(4-fluorophenyl)sulfonyl]-3-piperidinyl}-6-phenyl-1H-indazole-4-carboxamide] | > 15.8 µM |
